From article PMC7076710, “Synthesis, Identification, and Structure–Activity Relationship Analysis of GATA4 and NKX2-5 Protein–Protein Interaction Modulators” (Journal of Medicinal Chemistry, 2019)

Target: T1, GATA4–NKX2-5 transcriptional synergy (Mus musculus, UniProt P42582+Q08369)
T1 construct: expressed in transfected cells; host or cells: COS-1
Test: GATA4–NKX2-5 transcriptional synergy luciferase reporter assay (3xNKE reporter, COS-1 cells)
Format: cell-based
Method: To screen compounds for the GATA4–NKX2-5 interaction, we have developed a luciferase reporter assay based on their property to activate gene transcription synergistically through the NKX2-5 binding site on DNA.[28] In this assay, we transfected mammalian COS-1 cells with protein expression vectors for GATA4 and NKX2-5 proteins together with artificial luciferase reporter vector containing three high affinity binding sites for NKX2-5 (NKE). […] All 257 compounds were tested in two concentrations, 3 and 10 μM. Compounds either inhibited, enhanced, or had no effect on the GATA4–NKX2-5 transcriptional synergy. To investigate the selectivity of the active compounds, we tested their effects on NKX2-5 transcriptional activity by using the same luciferase reporter vector as in transcriptional synergy assay with three NKE sites (Figure 3B). Furthermore, we used GATA luciferase reporter assay to examine if compounds have an effect on GATA4 transcriptional activity. In this assay, we cotransfected the cells with a GATA4 protein expression vector and a reporter vector with tandem GATA4 binding sites (Figure 3C). Previously we have reported that compound 1 inhibited the GATA4–NKX2-5 transcriptional synergy at micromolar concentrations (IC50 = 3 μM).[29]
The plasmids expressing mouse GATA4 protein, pMT2-GATA4, and empty pMT2 were gifts from D. B. Wilson (Department of Pediatrics, St. Louis Children’s Hospital, St. Louis, MO).[44] The plasmids expressing mouse NKX2-5 protein, pMT2-NKX2-5, have been described earlier.[28] The luciferase reporter plasmid used in GATA4–NKX2-5 transcriptional synergy assay and NKX transcriptional assay, pGL3-3xHA, contains three high affinity binding sites for NKX2-5.[28] The luciferase reporter plasmid used in GATA transcriptional assay, NP-112, contains tandem GATA-sites and minimal promoter of rat brain natriuretic peptide (BNP) gene.[45] The pGL3-BNP luciferase reporter containing −534/+4 bp rat BNP proximal promoter described previously was used in hypertrophy assay.[46]
The primary screening assay of compounds’ effect on GATA4–NKX2-5 transcriptional synergy and COS-1 cell culturing has been described earlier.[33] […] (Kinnunen et al., unpublished observation). Briefly, COS-1 cells were seeded at 14 000 cells/well in Isoplate-96 microplates (PerkinElmer, Turku, Finland) and grown overnight. The cells were transfected with the luciferase reporter plasmid pGL3-3xHA 100 ng/well and equal amounts of expression plasmids pMT2-GATA4 and pMT2-NKX2-5 total 50 ng/well. To verify the synergistic effect, the cells were transfected with pMT2-GATA4 or pMT2-NKX2-5 25 ng/well, and the total DNA concentration was adjusted to 50 ng/well with empty pMT2 plasmid. In NKX2-5 and GATA4 luciferase reporter assays, the cells were transfected with reporter plasmid pGL3-3xHA or NP-112 (100 ng/well) and expression plasmid pMT2-NKX2-5 or pMT2-GATA4 (25 ng/well). The ratio of DNA/transfection reagent (Fugene 6, Promega) was 1:3 in all assays. The transfections were performed in serum and antibiotics free media for 6 h. The cells were treated with compounds or vehicle (0.1% DMSO) for 24 h, and the luminescence was measured using neolite Reporter Gene Assay System (PerkinElmer, Turku, Finland) and Victor2 plate reader (PerkinElmer, Turku, Finland).
Raw luciferase data were analyzed in Excel, and clear outliers were removed from triplicates by using the Grubb’s test. Data analysis was performed using R.[49] The luciferase data were first normalized on the basis of the combined mean value of controls. For data visualization and creation of figures, the following R packages were used: ggplot2, cowplot, RColorBrewer, and pheatmap. The heatmaps of the toxicity data were produced with GraphPad Prism 7.00 (GraphPad Software, La Jolla, CA). Statistical significance of luciferase reporter assay data was evaluated by randomized block analysis of variance followed by Dunnett’s post hoc test. […]

[1] = 3 µM compound, GATA4–NKX2-5 transcriptional synergy reporter, COS-1 cells
[2] = 10 µM compound, GATA4–NKX2-5 transcriptional synergy reporter, COS-1 cells
[3] = COS-1, compound 3 µM, luciferase reporter activity, spread in separate STDEV column
[4] = COS-1, compound at 3 µM, luciferase reporter activity, % of control
[5] = COS-1, compound at 10 µM, luciferase reporter activity, % of control
[6] = COS-1, 3 µM, luciferase reporter activity, % of control
[7] = COS-1, 10 µM, luciferase reporter activity, % of control
[8] = COS-1, compound 3 µM, luciferase reporter activity relative to control
[9] = COS-1, compound 10 µM, luciferase reporter activity, spread in separate STDEV column

T1 sequence (Q08369 whole entry): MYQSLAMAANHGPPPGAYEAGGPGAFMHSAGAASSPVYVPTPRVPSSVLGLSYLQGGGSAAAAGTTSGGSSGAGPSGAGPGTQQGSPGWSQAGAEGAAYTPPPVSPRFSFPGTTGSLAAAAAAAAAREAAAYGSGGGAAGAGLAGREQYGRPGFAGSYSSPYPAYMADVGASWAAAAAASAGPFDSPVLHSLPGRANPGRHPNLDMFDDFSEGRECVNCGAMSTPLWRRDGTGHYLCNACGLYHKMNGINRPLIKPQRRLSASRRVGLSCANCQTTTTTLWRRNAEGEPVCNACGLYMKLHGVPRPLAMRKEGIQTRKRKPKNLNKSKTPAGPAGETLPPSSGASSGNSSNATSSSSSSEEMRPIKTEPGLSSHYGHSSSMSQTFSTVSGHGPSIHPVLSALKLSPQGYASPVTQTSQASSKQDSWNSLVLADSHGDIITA
T1 sequence (P42582 whole entry): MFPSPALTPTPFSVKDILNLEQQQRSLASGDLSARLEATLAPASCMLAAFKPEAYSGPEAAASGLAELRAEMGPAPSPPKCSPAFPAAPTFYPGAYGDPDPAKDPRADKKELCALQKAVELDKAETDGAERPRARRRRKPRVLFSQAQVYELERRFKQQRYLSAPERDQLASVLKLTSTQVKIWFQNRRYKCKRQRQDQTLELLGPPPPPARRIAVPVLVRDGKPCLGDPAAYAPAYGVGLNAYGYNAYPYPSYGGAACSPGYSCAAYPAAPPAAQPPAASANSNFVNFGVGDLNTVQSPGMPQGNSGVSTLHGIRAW

## CCN(CC)c1ccc(NC(=O)c2c(-c3ccc(-c4ccc(F)cc4)cc3)noc2C)cc1 [Compound 39j]
[1]
  activity at 3 µM: 115%
[2]
  activity at 10 µM: 114%

## CCN(CC)c1ccc(NC(=O)c2c(-c3cc(Br)cs3)noc2C)cc1 [Compound 39l]
[3]
  activity at 3 µM: 91%

## Cc1onc(-c2cccc([N+](=O)[O-])c2)c1C(=O)Nc1ccc(N(C)C)cc1 [Compound 40]
[4]
  activity at 3 µM: 95%
[5]
  activity at 10 µM: 101%

## CCN(CC)c1ccc(NC(=O)c2ncoc2-c2ccccc2)cc1 [Compound 47a]
[6]
  activity at 3 µM: 90.7%
[7]
  activity at 10 µM: 112%

## CCN(CC)c1ccc(NC(=O)c2ccnc(C(F)(F)F)c2)cc1 [Compound 47ac]
[1]
  activity at 3 µM: 88.3%

## CCN(CC)c1ccc(NC(=O)c2nn(-c3ccccc3)nc2C)cc1 [Compound 47b]
[6]
  activity at 3 µM: 97.7%
[7]
  activity at 10 µM: 101%

## CCN(CC)c1ccc(NC(=O)c2cnn(C)c2-c2ccccc2)cc1 [Compound 47e]
[8]
  activity at 3 µM: 81.1%

## CCN(CC)c1ccc(NC(=O)c2c[nH]nc2-n2cnnn2)cc1 [Compound 47g, N-[4-(Diethylamino)phenyl]-3-(1H-tetrazol-1-yl)-1H-pyrazole-4-carboxamide]
[1]
  activity at 3 µM: 102%

## CCN(CC)c1ccc(NC(=O)c2ccoc2CCc2cccs2)cc1 [Compound 47i]
[1]
  activity at 3 µM: 89%
[2]
  activity at 10 µM: 103%

## CCN(CC)c1ccc(NC(=O)c2c(-c3ccccc3)nnc3ccccc23)cc1 [Compound 47j]
[8]
  activity at 3 µM: 113%

## CCN(CC)c1ccc(NC(=O)c2c(-c3ccccc3)nnn2CCOC)cc1 [Compound 47k]
[8]
  activity at 3 µM: 73.2%

## CCN(CC)c1ccc(NC(=O)c2c(-c3ccccc3)nnn2C)cc1 [Compound 47o]
[8]
  activity at 3 µM: 113%

## CCN(CC)c1ccc(NC(=O)c2nnn(C)c2-c2ccccc2)cc1 [Compound 47p]
[8]
  activity at 3 µM: 86.8%

## CCN(CC)c1ccc(NC(=O)c2c(C(F)(F)F)nn(C)c2Oc2ccccc2)cc1 [Compound 47q]
[1]
  activity at 3 µM: 94.5%

## CCN(CC)c1ccc(NC(=O)c2cnoc2C2CC2)cc1 [Compound 47r]
[6]
  activity at 3 µM: 114%
[7]
  activity at 10 µM: 145%

## CCN(CC)c1ccc(NC(=O)c2csc3nnsc23)cc1 [Compound 47v]
[1]
  activity at 3 µM: 95.9%
[2]
  activity at 10 µM: 132%

## CCN(CC)c1ccc(NC(=O)c2c(SC)nsc2SC)cc1 [Compound 47w]
[1]
  activity at 3 µM: 115%
[2]
  activity at 10 µM: 112%

## CCN(CC)c1ccc(NC(=O)c2ncoc2-c2ccco2)cc1 [Compound 47x]
[3]
  activity at 3 µM: 116%
[9]
  activity at 10 µM: 116%

## CCN(CC)c1ccc(/N=C/c2onc(-c3ccccc3)c2C(=O)Nc2ccc(N(CC)CC)cc2)cc1 [Compound 48]
[6]
  activity at 3 µM: 74.9%
[7]
  activity at 10 µM: 54.1%

## CCN(CC)c1ccc(/N=C/c2onc(-c3ccccc3)c2C(=O)OC)cc1 [Compound 51]
[4]
  activity at 3 µM: 81.3%
[5]
  activity at 10 µM: 93.5%

## CCN(CC)c1ccc(NC(=O)c2ccsc2)cc1 [Compound 55]
[7]
  activity at 10 µM: 108%

## CCN(CC)c1ccc(NC(=O)C2CCCC2)cc1 [Compound 57]
[3]
  activity at 3 µM: 112%
[9]
  activity at 10 µM: 115%

## CCN(CC)c1ccc(NC(=O)c2c(-c3ccccn3)noc2C)cc1 [Compound 59]
COS-1, GATA4-NKX2-5 transcriptional synergy luciferase reporter assay, compound at 3 µM
  activity at 3 µM: 90.9%
COS-1, GATA4-NKX2-5 transcriptional synergy luciferase reporter assay, compound at 10 µM
  activity at 10 µM: 104%

## CCN(c1ccc(NC(=O)c2c(C)noc2-c2snnc2C)cc1)C(C)C [Compound 62]
[1]
  activity at 3 µM: 31%

## Cc1onc(-c2ccccc2)c1NC(=O)c1ccc(N2CCN(C)CC2)cc1 [Compound 67]
[4]
  activity at 3 µM: 90.6%
[5]
  activity at 10 µM: 124%

## Cc1onc(-c2ccccc2)c1C(=O)N(C)c1ccc(C(=O)O)cc1 [Compound 68]
[3]
  activity at 3 µM: 117%
[9]
  activity at 10 µM: 127%

## CCC(C)NC(=O)c1cc(-c2ccco2)on1 (centres unmarked) [Compound 69]
[3]
  activity at 3 µM: 127%
[9]
  activity at 10 µM: 138%

## CC(=O)c1ccc(NC(=O)c2cc(-c3ccco3)on2)cc1 [Compound 70]
[3]
  activity at 3 µM: 115%

## CCSCCOC(=O)c1ccc(NC(=O)c2c(-c3ccccc3)noc2C)cc1 [SI1]
[3]
  activity at 3 µM: 115%
[9]
  activity at 10 µM: 104%

## Cc1onc(-c2ccccc2)c1C(=O)Nc1ccc(C(=O)OCc2ccco2)cc1 [SI2]
[3]
  activity at 3 µM: 99.4%
[9]
  activity at 10 µM: 82.7%

## CC(=O)COC(=O)c1ccc(NC(=O)c2c(-c3ccccc3)noc2C)cc1 [SI3]
[3]
  activity at 3 µM: 85.8%
[9]
  activity at 10 µM: 98.5%

## Cc1onc(-c2ccccc2)c1C(=O)Nc1ccc(Nc2ccccc2)cc1 [SI5]
[6]
  activity at 3 µM: 105%
[7]
  activity at 10 µM: 89.1%

## CCN(C(=O)c1c(-c2ccccc2)noc1C)c1ccc(Nc2ccccc2)cc1 [SI6]
[6]
  activity at 3 µM: 114%
[7]
  activity at 10 µM: 87.2%

## CCCCOc1ccc(NC(=O)c2c(-c3ccccc3)noc2C)cn1 [SI7]
[6]
  activity at 3 µM: 97.9%
[7]
  activity at 10 µM: 79%

## Cc1onc(-c2ccccc2)c1C(=O)Nc1nc2ccccc2n1C [SI9]
[4]
  activity at 3 µM: 83.5%
[5]
  activity at 10 µM: 78%

## Cc1cc(NC(=O)c2c(-c3ccccc3)noc2C)ncc1[N+](=O)[O-] [SI10]
[4]
  activity at 3 µM: 116%
[5]
  activity at 10 µM: 78.3%

## Cc1onc(-c2ccccc2)c1C(=O)Nc1ccc(C(=O)Nc2ccccc2)cc1 [SI11]
[4]
  activity at 3 µM: 80.1%
[5]
  activity at 10 µM: 98.5%

## Cc1onc(-c2ccccc2)c1C(=O)Nc1cnc2ccccc2c1 [SI12]
[4]
  activity at 3 µM: 108%
[5]
  activity at 10 µM: 99.5%

## Cc1onc(-c2ccccc2)c1C(=O)Nc1ccc(OCC(F)(F)F)c(Cl)c1 [SI13]
[3]
  activity at 3 µM: 89.2%
[9]
  activity at 10 µM: 71.6%

## Cc1onc(-c2ccccc2)c1C(=O)Nc1ccc2c(c1)C(=O)CCC2 [SI14]
[3]
  activity at 3 µM: 107%
[9]
  activity at 10 µM: 98.2%

## Cc1onc(-c2ccccc2)c1C(=O)Nc1ccc2c(c1)nc(C)n2C(C)C [SI15]
[4]
  activity at 3 µM: 92.6%
[5]
  activity at 10 µM: 96%

## Cc1onc(-c2ccccc2)c1C(=O)N1CCc2cc([N+](=O)[O-])ccc21 [SI16]
[6]
  activity at 3 µM: 99.5%
[7]
  activity at 10 µM: 91.3%

## Cc1onc(-c2ccccc2)c1NC(=O)OC(C)(C)C [SI17]
[6]
  activity at 3 µM: 99.2%
[7]
  activity at 10 µM: 87.1%

## CCN(CC)c1ccc(NCc2c(-c3c(Cl)cccc3Cl)noc2C)cc1 [SI18]
[1]
  activity at 3 µM: 102%
[2]
  activity at 10 µM: 92.8%

## CCN(CC)c1ccc(NS(=O)(=O)c2c(C)noc2C)cc1 [SI19]
[6]
  activity at 3 µM: 91.6%
[7]
  activity at 10 µM: 79.1%

## CCN(CC)c1ccc(/N=N/c2c(C)noc2C)cc1 [SI20]
[6]
  activity at 3 µM: 82.6%
[7]
  activity at 10 µM: 101%

## CCN(CC)c1ccc(C(=O)Nc2c(C)noc2C)cc1 [SI21]
[6]
  activity at 3 µM: 113%
[7]
  activity at 10 µM: 97.4%

## CCN(CC)c1ccc(C(=O)On2nnc3ccccc32)cc1 [SI22]
[6]
  activity at 3 µM: 80.4%
[7]
  activity at 10 µM: 114%

## Cc1onc(-c2ccccc2)c1NC(=O)Nc1ccc(OC(F)(F)F)cc1 [SI23]
[4]
  activity at 3 µM: 109%
[5]
  activity at 10 µM: 68.7%

## Cc1onc(-c2ccccc2)c1NC(=O)Nc1cccc(C(F)(F)F)c1 [SI24]
[6]
  activity at 3 µM: 109%
[7]
  activity at 10 µM: 86.5%

## Cc1onc(-c2ccccc2)c1NC(=O)NC1CCCCC1 [SI25]
[4]
  activity at 3 µM: 91.2%
[5]
  activity at 10 µM: 118%

## Cc1onc(-c2ccccc2)c1NC(=O)Nc1ccc(C(=O)c2ccccc2)cc1 [SI26]
[6]
  activity at 3 µM: 94.9%
[7]
  activity at 10 µM: 72.7%
